Reference: PMC9861390, “Synthesis and Molecular Docking of Some Novel 3-Thiazolyl-Coumarins as Inhibitors of VEGFR-2 Kinase” (Molecules, 2023)

Assays:
[1] = test system: human breast cancer (MCF-7) cell line; test: MTT cytotoxicity assay on MCF-7; type: cell-based; settings: MCF7, 24 h incubation, mean and standard error of three tests
Protocol: (§1) Afterward, the determination of the tested sample concentrations that were sufficient to kill 50 percent of the cell population (IC50) was done by using the cytotoxicity results in plotting a dose-response curve.
(§2) In addition, cytotoxic activities were reported as the average IC50 from three separate tests.
The cytotoxicity of the investigated substances was assessed and determined by MTT assay, and the detailed cytotoxicity assay is included in the Supplementary File S1 [57, 58].
1H-NMR spectra of compound 12c-1
(§3) The tested human breast cancer (MCF -7) cell lines and normal cell line LLC - Mk2 were obtained from the American Type Culture Collection (ATCC, Rockville, MD). The cells were grown on RPMI -1640 medium supplemented with 10% inactivated fetal calf serum and 50µg/mL gentamycin (Lonza, Belgium). The cells were maintained at 37 °C in a humidified atmosphere with 5% CO 2 and were subcultured two to three times a week during the period of experiment .
(§4) For antitumor assays, the tumor cell lines were suspended in medium at cell density of 5x10^4 cells/well in Corning® 96-well tissue culture plates and then incubated for 24 hours. The tested compounds were then added into 96-well plates (six replicates) to achieve eight concentrations for each compound. Six vehicle controls with media or 0.5 % DMSO were run for each 96 well plate as a control. After incubating for 24 h, the numbers of viable cells were determined by the MTT assay. Briefly, the media was removed from the 96-well plate and replaced with 100 µl of fresh culture RPMI 1640 medium without phenol red then 10
(§5) (1 picture or pasted object on this page, not shown here) […]
(§6) µL of the 12 mM MTT stock solution {5 mg of 3-(4,5-dimethylthiazol-2-yl)-2,5-diphenyltetrazolium bromide purchased from Sigma-Aldrich (St. Louis, MO) in 1 mL of Phosphate buffered saline} to each well including the untreated controls. The 96 well plates were then incubated at 37°C and 5% CO 2 for 4 hours.
(§7) An 85 µl aliquot of the media was removed from the wells, and 50 µL of DMSO was added to each well and mixed thoroughly with the pipette and incubated at 37 °C for 10 min. Then, the optical density was measured at 590 nm with the microplate reader (SunRise, TECAN, Inc, USA) to dete rmine the number of viable cells and the percentage of viability was calculated as [(ODt/ODc)]x100% where ODt is the mean optical density of wells treated with the tested sample and ODc is the mean optical density of untreated cells. The relation between surviving cells and drug concentration is plotted to get the survival curve of each tumor cell line after treatment with the specified compound. The 50% inhibitory concentration (IC 50), the concentration required to cause toxic effects in 50% of intact cells, was estimated from graphic plots of the dose response curve for each conc. using GraphPad Prism software (San Diego, CA. USA)[ 2].
1. Mosmann, T. Rapid colorimetric assay for cellular growth and survival: application to proliferation and cytotoxicity assays. J. Immunol. Methods 1983, 65, 55-63.

[2] = MTT cytotoxicity assay on normal cell line LLC-Mk2; type: cell-based; settings: rhesus monkey, LLC-Mk2 kidney epithelial normal cells, mean and standard error
Protocol: as §1, §2
The cytotoxicity of the investigated substances was assessed and determined by MTT assay, and the detailed cytotoxicity assay is included in the Supplementary File S1 [57, 58]. […]
as §3, §4, §5, §6
as §7, with “2]. […]” for “2].”

VEGFR-2 = test system: VEGFR-2; parameters: method as in PMID 28942113, PMID 21078410, PMID 26916914, PMID 27367493, PMID 35807236; settings: in Figure 2; cited from earlier work

SMILES	melting point	IC50 [1]	CC50 at 24 h [2]	VEGFR-2 inhibition (VEGFR-2)
CC(=NNC(N)=S)c1cc2cc(N=Nc3ccccc3)ccc2oc1=O [Compound 3, 2-(1-(2-oxo-6-(phenyldiazenyl)-2H-chromen-3-yl)ethylidene)hydrazine-1-carbothioamide]	177 to 179 °C	–	–	–
C/C(=N\Nc1nc(C)c(/N=N/c2ccccc2)s1)c1cc2cc(/N=N/c3ccccc3)ccc2oc1=O [Compound 6a]	201 to 203 °C	–	–	–
CC(=NNc1nc(C)c(N=Nc2ccc(C)cc2)s1)c1cc2cc(N=Nc3ccccc3)ccc2oc1=O [Compound 6b]	–	11.2 ± 0.8 µM	152 ± 9.3 µM	–
COc1ccc(/N=N/c2sc(N/N=C(\C)c3cc4cc(/N=N/c5ccccc5)ccc4oc3=O)nc2C)cc1 [Compound 6c]	179 to 181 °C	14.1 ± 0.63 µM	141 ± 5.15 µM	–
CC(=NNc1nc(C)c(N=Nc2ccc(Cl)cc2)s1)c1cc2cc(N=Nc3ccccc3)ccc2oc1=O [Compound 6d]	–	10.5 ± 0.71 µM	132 ± 8.26 µM	–
CC(=NNc1nc(C)c(N=Nc2ccc(Cl)cc2Cl)s1)c1cc2cc(N=Nc3ccccc3)ccc2oc1=O [Compound 6e]	216 to 218 °C	–	–	–
CC(=NNC1=NC(=O)C(=NNc2ccc(C)cc2)S1)c1cc2cc(N=Nc3ccccc3)ccc2oc1=O [Compound 10a]	–	28.6 ± 0.64 µM	140 ± 10.3 µM	–
CC(=NNC1=NC(=O)C(=NNc2ccc(Cl)cc2)S1)c1cc2cc(N=Nc3ccccc3)ccc2oc1=O [Compound 10b]	190 to 192 °C	–	–	–
CC(=NNC1=NC(=O)C(=NNc2ccc([N+](=O)[O-])cc2)S1)c1cc2cc(N=Nc3ccccc3)ccc2oc1=O [Compound 10c]	–	15.7 ± 0.67 µM	163 ± 9.12 µM	–
CC(=NNc1nc(-c2ccccc2)cs1)c1cc2cc(N=Nc3ccccc3)ccc2oc1=O [Compound 12a]	217 to 219 °C	–	–	–
COc1ccc(-c2csc(NN=C(C)c3cc4cc(N=Nc5ccccc5)ccc4oc3=O)n2)cc1 [Compound 12b]	205 to 207 °C	–	–	–
C/C(=N\Nc1nc(-c2ccc([N+](=O)[O-])cc2)cs1)c1cc2cc(/N=N/c3ccccc3)ccc2oc1=O [Compound 12c]	231 to 233 °C	–	–	–
C/C(=N\c1ccc(F)cc1)c1c(O)c2ccccc2oc1=O [III]	–	–	–	94%
CO/C=N\C1=C(C#N)C(c2ccc(F)cc2)c2c(c3ccccc3oc2=O)C1 (stereo not drawn) [IV]	–	–	–	94%
CNC(=O)c1cc(Oc2ccc(NC(=O)Nc3ccc(Cl)c(C(F)(F)F)c3)cc2)ccn1 [Sorafenib, reference compound]	–	5.1 ± 0.49 µM	135 ± 4.08 µM	–
O=c1oc2cc(O)ccc2c(Nc2ccc(OCCN3CCCCC3)cc2)c1-c1ccc(F)cc1 [X = NH]	–	–	–	88.42%
O=c1oc2cc(O)ccc2c(Oc2ccc(OCCN3CCCCC3)cc2)c1-c1ccc(F)cc1 [X = O]	–	–	–	82.92%
